Assays:
[1] = tested on: BT-474; experiment: Antiproliferative activity against human BT474 cells; format: functional, cell-based
[2] = target: Cytochrome P450 3A4 (Homo sapiens, UniProt P08684); experiment: Inhibition of CYP3A4; format: ADME
[3] = target: T1, Voltage-gated inwardly rectifying potassium channel KCNH2 (Homo sapiens, UniProt Q12809); experiment: Inhibition of human ERG relative to control
[4] = target: RAC-alpha serine/threonine-protein kinase (Homo sapiens, UniProt P31749); experiment: Inhibition of human AKT1
[5] = target: RAC-beta serine/threonine-protein kinase (Homo sapiens, UniProt P31751); experiment: Inhibition of human AKT2
[6] = target: RAC-gamma serine/threonine-protein kinase (Homo sapiens, UniProt Q9Y243); experiment: Inhibition of human AKT3
[7] = tested on: Mus musculus; experiment: Dose normalized AUC (0 to t) in mouse at 9.6 mg, ip; format: ADME, organism-based; conditions: in vivo
[8] = tested on: Rattus norvegicus; experiment: Dose normalized AUC (0 to t) in rat at 10.6 mg, iv; format: ADME, organism-based; conditions: in vivo
[9] = Clearance in rat at 10.6 mg, iv; format: ADME, organism-based; conditions: in vivo
[10] = tested on: Canis familiaris; experiment: Dose normalized AUC (0 to t) in dog at 2.4 mg, iv; format: ADME, organism-based, Canis lupus familiaris; conditions: in vivo
[11] = Clearance in dog at 2.4 mg, iv; format: ADME, organism-based, Canis lupus familiaris; conditions: in vivo
[12] = tested on: Rhesus monkey; experiment: Dose normalized AUC (0 to t) in monkey at 3.1 mg, iv; format: ADME, organism-based, Macaca mulatta; conditions: in vivo
[13] = Clearance in monkey at 3.1 mg, iv; format: ADME, organism-based, Macaca mulatta; conditions: rhesus monkey, in vivo
[14] = tested on: Mus musculus; experiment: Dose normalized AUC (0 to t) in mouse at 2.2 mg, iv; format: ADME, organism-based; conditions: in vivo
[15] = Clearance in mouse at 2.2 mg, iv; format: ADME, organism-based; conditions: in vivo
[16] = tested on: Rattus norvegicus; experiment: Dose normalized AUC (0 to t) in rat at 2.4 mg, iv; format: ADME, organism-based; conditions: in vivo
[17] = Clearance in rat at 2.4 mg, iv; format: ADME, organism-based; conditions: in vivo
[18] = tested on: Canis familiaris; experiment: Dose normalized AUC (0 to t) in dog at 3.1 mg, iv; format: ADME, organism-based, Canis lupus familiaris; conditions: in vivo
[19] = Clearance in dog at 3.1 mg, iv; format: ADME, organism-based, Canis lupus familiaris; conditions: in vivo
[20] = tested on: Rhesus monkey; experiment: Dose normalized AUC (0 to t) in monkey at 3.0 mg, iv; format: ADME, organism-based, Macaca mulatta; conditions: in vivo
[21] = Clearance in monkey at 3.0 mg, iv; format: ADME, organism-based, Macaca mulatta; conditions: rhesus monkey, in vivo
[22] = target: T1, Voltage-gated inwardly rectifying potassium channel KCNH2; experiment: Inhibition of human ERG
[23] = tested on: Mus musculus; experiment: Antitumor activity against human BT474 cells xenografted in ip dosed mouse assessed as inhibition of tumor growth; conditions: BT-474
[24] = tested on: Mus musculus; experiment: Antitumor activity against human BT474 cells xenografted in mouse assessed as reduction in tumor volume at 30 mg/kg, ip; set-up: scale not given: the % may be the effect or the level left; conditions: route intraperitoneal

Sequence of RAC-gamma serine/threonine-protein kinase (Q9Y243 whole entry): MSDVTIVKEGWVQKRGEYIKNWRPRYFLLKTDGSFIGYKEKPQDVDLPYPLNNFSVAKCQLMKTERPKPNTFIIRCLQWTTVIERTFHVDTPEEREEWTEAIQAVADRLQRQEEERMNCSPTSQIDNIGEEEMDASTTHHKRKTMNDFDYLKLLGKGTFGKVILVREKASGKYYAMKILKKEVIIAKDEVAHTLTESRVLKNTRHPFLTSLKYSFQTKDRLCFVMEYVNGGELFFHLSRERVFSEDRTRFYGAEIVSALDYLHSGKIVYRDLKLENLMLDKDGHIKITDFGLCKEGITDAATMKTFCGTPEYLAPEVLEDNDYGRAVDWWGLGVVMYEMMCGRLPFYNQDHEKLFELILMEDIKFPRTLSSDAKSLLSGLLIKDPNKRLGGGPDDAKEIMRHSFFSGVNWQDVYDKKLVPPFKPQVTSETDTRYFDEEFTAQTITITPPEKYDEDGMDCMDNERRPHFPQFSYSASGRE
Sequence of RAC-alpha serine/threonine-protein kinase (P31749 whole entry): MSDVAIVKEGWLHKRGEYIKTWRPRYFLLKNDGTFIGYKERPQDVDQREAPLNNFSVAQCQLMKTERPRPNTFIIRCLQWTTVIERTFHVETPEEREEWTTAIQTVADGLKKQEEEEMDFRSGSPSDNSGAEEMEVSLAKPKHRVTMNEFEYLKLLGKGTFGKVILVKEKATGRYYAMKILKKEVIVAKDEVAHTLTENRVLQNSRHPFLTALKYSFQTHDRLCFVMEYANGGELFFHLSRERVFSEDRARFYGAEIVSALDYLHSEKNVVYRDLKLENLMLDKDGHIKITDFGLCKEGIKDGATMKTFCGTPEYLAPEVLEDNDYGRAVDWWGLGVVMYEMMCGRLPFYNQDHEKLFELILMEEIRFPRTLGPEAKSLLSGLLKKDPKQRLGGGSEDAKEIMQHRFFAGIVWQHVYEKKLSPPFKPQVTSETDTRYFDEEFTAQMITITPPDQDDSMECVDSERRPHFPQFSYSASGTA
Sequence of RAC-beta serine/threonine-protein kinase (P31751 whole entry): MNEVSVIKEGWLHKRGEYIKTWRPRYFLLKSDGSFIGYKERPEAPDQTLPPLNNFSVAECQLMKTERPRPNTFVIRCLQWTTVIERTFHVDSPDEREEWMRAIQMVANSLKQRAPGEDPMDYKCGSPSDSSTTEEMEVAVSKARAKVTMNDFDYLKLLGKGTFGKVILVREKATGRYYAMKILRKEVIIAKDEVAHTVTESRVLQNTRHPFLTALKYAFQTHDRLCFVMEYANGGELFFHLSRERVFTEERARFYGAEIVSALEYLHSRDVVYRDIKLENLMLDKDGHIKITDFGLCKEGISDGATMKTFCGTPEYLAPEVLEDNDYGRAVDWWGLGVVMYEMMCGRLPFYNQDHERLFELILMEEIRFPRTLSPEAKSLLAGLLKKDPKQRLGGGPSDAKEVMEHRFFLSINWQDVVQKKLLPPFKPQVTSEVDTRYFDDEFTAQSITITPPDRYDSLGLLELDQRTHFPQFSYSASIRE
T1 sequence (Q12809 whole entry): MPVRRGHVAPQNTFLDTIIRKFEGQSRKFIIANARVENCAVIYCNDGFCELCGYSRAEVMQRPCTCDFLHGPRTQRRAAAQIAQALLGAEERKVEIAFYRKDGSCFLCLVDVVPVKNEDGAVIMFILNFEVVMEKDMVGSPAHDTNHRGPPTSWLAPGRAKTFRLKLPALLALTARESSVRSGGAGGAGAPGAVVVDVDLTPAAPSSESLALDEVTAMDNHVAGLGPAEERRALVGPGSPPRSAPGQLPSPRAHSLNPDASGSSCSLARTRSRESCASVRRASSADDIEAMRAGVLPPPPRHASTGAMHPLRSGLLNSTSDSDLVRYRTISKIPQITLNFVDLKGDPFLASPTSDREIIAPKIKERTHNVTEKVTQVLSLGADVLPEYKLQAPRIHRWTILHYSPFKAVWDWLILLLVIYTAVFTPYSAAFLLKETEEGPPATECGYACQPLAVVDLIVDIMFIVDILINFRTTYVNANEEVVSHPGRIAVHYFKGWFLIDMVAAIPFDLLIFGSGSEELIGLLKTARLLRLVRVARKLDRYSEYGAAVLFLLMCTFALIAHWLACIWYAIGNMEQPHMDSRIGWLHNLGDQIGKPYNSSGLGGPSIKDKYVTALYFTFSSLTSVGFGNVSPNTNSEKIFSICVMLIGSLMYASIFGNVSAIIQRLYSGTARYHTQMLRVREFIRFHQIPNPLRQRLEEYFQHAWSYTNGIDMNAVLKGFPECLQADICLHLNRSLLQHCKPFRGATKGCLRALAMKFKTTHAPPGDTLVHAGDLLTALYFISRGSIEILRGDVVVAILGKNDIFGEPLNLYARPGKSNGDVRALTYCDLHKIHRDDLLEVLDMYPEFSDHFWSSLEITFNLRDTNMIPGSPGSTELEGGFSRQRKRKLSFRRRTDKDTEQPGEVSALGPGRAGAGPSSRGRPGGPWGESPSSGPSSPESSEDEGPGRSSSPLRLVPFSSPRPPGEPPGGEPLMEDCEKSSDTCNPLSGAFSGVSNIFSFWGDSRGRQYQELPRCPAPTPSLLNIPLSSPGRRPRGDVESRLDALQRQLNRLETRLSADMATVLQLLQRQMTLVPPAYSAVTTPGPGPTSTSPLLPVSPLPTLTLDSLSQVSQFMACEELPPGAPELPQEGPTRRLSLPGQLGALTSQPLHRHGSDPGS
Sequence of Cytochrome P450 3A4 (P08684 whole entry): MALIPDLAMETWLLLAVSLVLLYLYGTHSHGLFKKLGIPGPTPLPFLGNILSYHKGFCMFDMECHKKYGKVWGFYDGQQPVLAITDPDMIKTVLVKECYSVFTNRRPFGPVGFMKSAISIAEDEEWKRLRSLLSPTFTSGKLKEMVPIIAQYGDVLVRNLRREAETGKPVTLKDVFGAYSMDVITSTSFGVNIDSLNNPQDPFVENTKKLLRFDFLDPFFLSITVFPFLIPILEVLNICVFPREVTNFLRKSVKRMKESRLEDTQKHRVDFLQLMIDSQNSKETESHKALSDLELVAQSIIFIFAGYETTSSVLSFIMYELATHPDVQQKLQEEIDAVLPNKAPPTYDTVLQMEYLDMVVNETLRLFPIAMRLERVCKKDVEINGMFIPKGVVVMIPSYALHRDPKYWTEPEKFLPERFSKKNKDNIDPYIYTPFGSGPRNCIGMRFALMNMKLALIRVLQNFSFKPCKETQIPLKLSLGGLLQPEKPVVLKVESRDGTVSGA

| SMILES | IC50 [1] [nM] | IC50 [2] [nM] | IC50 [4] [nM] | IC50 [5] [nM] | IC50 [6] [nM] | also measured |
| --- | --- | --- | --- | --- | --- | --- |
| Cc1occc1-c1nc(N)c(OC[C@@H](N)Cc2c[nH]c3ccccc23)cc1-c1ccc2[nH]nc(C)c2c1 | 200 | 100 | 3 | 15 | 1 | – |
| Cc1occc1-c1nc(N)c(OC[C@@H](N)Cc2ccccc2)cc1-c1cnc2[nH]nc(C)c2n1 | 580 | 3200 | 6 | 130 | 6 | – |
| Cc1n[nH]c2ncc(-c3cc(OC[C@@H](N)Cc4c[nH]c5ccccc45)c(C#N)nc3-c3ccoc3)nc12 | – | 790 | 10 | 250 | 19 | – |
| CCNc1nc(-c2ccoc2)c(-c2cnc3[nH]nc(C)c3n2)cc1OC[C@@H](N)Cc1ccccc1 | 3900 | 5000 | 500 | 6300 | 500 | – |
| Cc1n[nH]c2ncc(-c3cc(OC[C@@H](N)Cc4c[nH]c5ccccc45)cnc3-c3ccoc3)nc12 | – | – | – | – | – | AUC [7]: 96 ng·h/mL/mg; AUC [8]: 301 ng·h/mL/mg; clearance [9]: 53.2 mL/min/kg; AUC [10]: 425 ng·h/mL/mg; clearance [11]: 34.4 mL/min/kg; AUC [12]: 386 ng·h/mL/mg; clearance [13]: 39.1 mL/min/kg |
| Cc1nc(-c2ccoc2)c(-c2cnc3[nH]nc(C)c3n2)cc1OC[C@@H](N)Cc1c[nH]c2ccccc12 | 1260 | 630 | 3 | 63 | 10 | – |
| Cc1occc1-c1nc(N)c(OC[C@@H](N)Cc2c[nH]c3ccccc23)cc1-c1cnc2[nH]nc(C)c2n1 | 310 | 5000 | 1 | 19 | 2 | AUC [14]: 170 ng·h/mL/mg; clearance [15]: 98.9 mL/min/kg; AUC [16]: 303 ng·h/mL/mg; clearance [17]: 46 mL/min/kg; AUC [18]: 630 ng·h/mL/mg; clearance [19]: 25.3 mL/min/kg; AUC [20]: 853 ng·h/mL/mg; clearance [21]: 22.3 mL/min/kg; IC50 [22]: 10400 nM; inhibition (INH) [3]: 95%; Activity [23]: Dose-dependent effect; Activity [24]: 59% |

Continued by falling IC50 [4], values first:

| IC50 [1] [nM] | IC50 [2] [nM] | IC50 [4] [nM] | IC50 [5] [nM] | IC50 [6] [nM] | SMILES | also measured |
| --- | --- | --- | --- | --- | --- | --- |
| 290 | 630 | 1 | 25 | – | Cc1occc1-c1ncc(OC[C@@H](N)Cc2c[nH]c3ccccc23)cc1-c1cnc2[nH]nc(C)c2n1 | inhibition (INH) [3]: 83.4% |
| 470 | 1000 | 1 | 15 | 2 | Cc1occc1-c1nc(N)c(OC[C@@H](N)Cc2c[nH]c3ccccc23)cc1-c1cnc2[nH]nc(C)c2c1 | – |
| 150 | 500 | 1 | 12 | 2 | Cc1occc1-c1nc(N)c(OC[C@@H](N)Cc2c(Cl)[nH]c3ccccc23)cc1-c1cnc2[nH]nc(C)c2n1 | – |
| > 10000 | – | 1 | 15 | 1 | Cc1occc1-c1nc(N)c(OC[C@@H](N)Cc2c(C(N)=O)[nH]c3ccccc23)cc1-c1cnc2[nH]nc(C)c2n1 | – |
| 2800 | 1600 | 1 | 7 | 1 | Cc1occc1-c1nc(N)c(OC[C@@H](N)Cc2c(C#N)[nH]c3ccccc23)cc1-c1cnc2[nH]nc(C)c2n1 | – |
| 300 | 1300 | 1 | 13 | 3 | Cc1occc1-c1nc(N)c(OC[C@@H](N)Cc2c[nH]c3ccccc23)cc1-c1cc2c(C)n[nH]c2cn1 | – |
